Source: the supplement of paper PMC6045584
± gives the standard deviation of the averaged measurements.

Key:
[1] = compound: T1, Nc1nc2[nH]cnc2c(=S)[nH]1 [TIOGUANINE]; experiment: area under dose-response curve of surviving fraction (unscaled, Aref=0) (surviving fraction x log10(nM)); higher = more resistant; conditions: exposure time: 5 days; dose range 0.5-1000 nM
Summary of the method: (§1)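 Three screens per tumour cell line were run in 384-well plates at eight inhibitor concentrations from 0.5 to 1000 nM over five days. Surviving fractions, from CellTiter-Glo luminescence normalised to DMSO-only wells, were fitted with 3-parameter logistic curves in the drc R package. The reported area under the curve is the unscaled activity area. It spans log10 dose, and Aref is 0.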

[2] = compound: T2, CNC(=O)c1ccc(N2C(=S)N(c3ccc(C#N)c(C(F)(F)F)c3)C(=O)C2(C)C)cc1F [MDV3100]; experiment: as above; conditions: exposure time: 5 days; dose range 0.5-1000 nM
Summary of the method: as §1

[3] = compound: T3, C=CC(=O)Nc1cc2c(Nc3ccc(F)c(Cl)c3)ncnc2cc1OCCCN1CCOCC1 [CANERTINIB]; experiment: as above; conditions: exposure time: 5 days; dose range 0.5-1000 nM
Summary of the method: as §1

[4] = compound: T4, CC[C@@H]1C(=O)N(C)c2cnc(Nc3ccc(C(=O)NC4CCN(C)CC4)cc3OC)nc2N1C1CCCC1 [BI-2536]; experiment: as above; conditions: exposure time: 5 days; dose range 0.5-1000 nM
Summary of the method: as §1

[5] = compound: T5, CC1(C)CC(=O)c2c(C(F)(F)F)nn(-c3ccc(C(N)=O)c(N[C@H]4CC[C@H](OC(=O)CN)CC4)c3)c2C1 [SNX-5422]; experiment: as above; conditions: exposure time: 5 days; dose range 0.5-1000 nM
Summary of the method: as §1

[6] = compound: Cn1cc(C2=Nc3cc(NC(=O)C(N)C4CCCCC4)cc4c3C2=CNNC4=O)cn1; experiment: as above; conditions: exposure time: 5 days; dose range 0.5-1000 nM
Summary of the method: as §1

[7] = compound: T6, CCCCCCCCCCCCCCCC(=O)Nc1ccn([C@@H]2O[C@H](CO)[C@@H](O)[C@@H]2C#N)c(=O)n1 [SAPACITABINE]; experiment: as above; conditions: exposure time: 5 days; dose range 0.5-1000 nM
Summary of the method: as §1

[8] = compound: T1, TIOGUANINE; experiment: surviving fraction relative to DMSO-only wells; higher = less growth inhibition; conditions: exposure time: 5 days
Summary of the method: (§2)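 Viability was scored with CellTiter-Glo luminescence and normalised to the median of DMSO-only wells as surviving fraction. Beforehand, log-phase tumour cell lines were seeded at 250–500 cells per well in 384-well plates, allowed 24 hours, and exposed continuously for five days to inhibitors at 0.5, 1, 5, 10, 50, 100, 500 and 1000 nM. Only lines whose three screens gave replicate Pearson r >0.7 and median Z' >0.3 were kept.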

[9] = compound: T2, MDV3100; experiment: as above; conditions: exposure time: 5 days
Summary of the method: as §2

[10] = compound: T3, CANERTINIB; experiment: as above; conditions: exposure time: 5 days
Summary of the method: as §2

[11] = compound: T4, BI-2536; experiment: as above; conditions: exposure time: 5 days
Summary of the method: as §2

[12] = compound: T5, SNX-5422; experiment: as above; conditions: exposure time: 5 days
Summary of the method: as §2

[13] = compound: Cn1cc(C2=Nc3cc(NC(=O)C(N)C4CCCCC4)cc4c3C2=CNNC4=O)cn1; experiment: as above; conditions: exposure time: 5 days
Summary of the method: as §2

[14] = compound: CN(C)C/C=C/C(=O)Nc1cc2c(Nc3ccc(F)c(Cl)c3)ncnc2cc1O[C@H]1CCOC1 [AFATINIB]; experiment: as above; conditions: exposure time: 5 days
Summary of the method: as §2

[15] = compound: T6, SAPACITABINE; experiment: as above; conditions: exposure time: 5 days
Summary of the method: as §2

HCC70 BREAST
area under dose-response curve [1]: 3.37 | area under dose-response curve [2]: 3.28 | area under dose-response curve [3]: 3 | area under dose-response curve [4]: 2 | area under dose-response curve [5]: 2.19 | area under dose-response curve [6]: 2.23 | area under dose-response curve [7]: 2.57 | surviving fraction ([8]; 0.5 nM): 1.05 ± 0.03 | surviving fraction ([8]; 1 nM): 0.896 ± 0.043 | surviving fraction ([8]; 5 nM): 1.03 ± 0.069 | surviving fraction ([8]; 10 nM): 1 ± 0.013 | surviving fraction ([8]; 50 nM): 1.04 ± 0.13 | surviving fraction ([8]; 100 nM): 1.02 ± 0.052 | surviving fraction ([8]; 500 nM): 1.04 ± 0.059 | surviving fraction ([8]; 1000 nM): 1.04 ± 0.1 | surviving fraction ([9]; 0.5 nM): 0.994 ± 0.021 | surviving fraction ([9]; 1 nM): 0.955 ± 0.052 | surviving fraction ([9]; 5 nM): 0.992 ± 0.085 | surviving fraction ([9]; 10 nM): 0.963 ± 0.16 | surviving fraction ([9]; 50 nM): 1.06 ± 0.082 | surviving fraction ([9]; 100 nM): 0.979 ± 0.051 | surviving fraction ([9]; 500 nM): 0.975 ± 0.076 | surviving fraction ([9]; 1000 nM): 0.88 ± 0.058 | surviving fraction ([10]; 0.5 nM): 0.991 ± 0.14 | surviving fraction ([10]; 1 nM): 1.088 ± 0.0046 | surviving fraction ([10]; 5 nM): 1.02 ± 0.078 | surviving fraction ([10]; 10 nM): 0.96 ± 0.019 | surviving fraction ([10]; 50 nM): 0.911 ± 0.047 | surviving fraction ([10]; 100 nM): 0.893 ± 0.017 | surviving fraction ([10]; 500 nM): 0.707 ± 0.0092 | surviving fraction ([10]; 1000 nM): 0.666 ± 0.068 | surviving fraction ([11]; 0.5 nM): 1.08 ± 0.026 | surviving fraction ([11]; 1 nM): 0.933 ± 0.12 | surviving fraction ([11]; 5 nM): 0.57 ± 0.047 | surviving fraction ([11]; 10 nM): 0.35 ± 0.053 | surviving fraction ([11]; 50 nM): 0.623 ± 0.041 | surviving fraction ([11]; 100 nM): 0.795 ± 0.043 | surviving fraction ([11]; 500 nM): 0.593 ± 0.042 | surviving fraction ([11]; 1000 nM): 0.391 ± 0.045 | surviving fraction ([12]; 0.5 nM): 1.07 ± 0.05 | surviving fraction ([12]; 1 nM): 1.142 ± 0.0055 | surviving fraction ([12]; 5 nM): 1.19 ± 0.043 | surviving fraction ([12]; 10 nM): 1.17 ± 0.048 | surviving fraction ([12]; 50 nM): 0.668 ± 0.11 | surviving fraction ([12]; 100 nM): 0.133 ± 0.023 | surviving fraction ([12]; 500 nM): 0.127 ± 0.021 | surviving fraction ([12]; 1000 nM): 0.113 ± 0.016 | surviving fraction ([13]; 0.5 nM): 1.04 ± 0.035 | surviving fraction ([13]; 1 nM): 1.19 ± 0.054 | surviving fraction ([13]; 5 nM): 1.13 ± 0.046 | surviving fraction ([13]; 10 nM): 1.09 ± 0.063 | surviving fraction ([13]; 50 nM): 0.758 ± 0.028 | surviving fraction ([13]; 100 nM): 0.313 ± 0.076 | surviving fraction ([13]; 500 nM): 0.0723 ± 0.014 | surviving fraction ([13]; 1000 nM): 0.042 ± 0.0052 | surviving fraction ([14]; 0.5 nM): 1.02 ± 0.064 | surviving fraction ([14]; 1 nM): 0.981 ± 0.067 | surviving fraction ([14]; 5 nM): 1 ± 0.015 | surviving fraction ([14]; 10 nM): 0.965 ± 0.092 | surviving fraction ([14]; 50 nM): 0.967 ± 0.022 | surviving fraction ([14]; 100 nM): 1.02 ± 0.093 | surviving fraction ([14]; 500 nM): 0.962 ± 0.016 | surviving fraction ([14]; 1000 nM): 0.827 ± 0.1 | surviving fraction ([15]; 0.5 nM): 0.968 ± 0.09 | surviving fraction ([15]; 1 nM): 0.935 ± 0.058 | surviving fraction ([15]; 5 nM): 1.03 ± 0.036 | surviving fraction ([15]; 10 nM): 0.97 ± 0.023 | surviving fraction ([15]; 50 nM): 0.746 ± 0.065 | surviving fraction ([15]; 100 nM): 0.635 ± 0.0092 | surviving fraction ([15]; 500 nM): 0.4057 ± 0.0035 | surviving fraction ([15]; 1000 nM): 0.332 ± 0.028

BT20 BREAST
area under dose-response curve [1]: 3.43 | area under dose-response curve [2]: 3.5 | area under dose-response curve [3]: 2.52 | area under dose-response curve [4]: 0.663 | area under dose-response curve [5]: 2.46 | area under dose-response curve [6]: 3.17 | area under dose-response curve [7]: 1.76 | surviving fraction ([8]; 0.5 nM): 1.02 ± 0.028 | surviving fraction ([8]; 1 nM): 1.05 ± 0.12 | surviving fraction ([8]; 5 nM): 1.07 ± 0.033 | surviving fraction ([8]; 10 nM): 1.03 ± 0.048 | surviving fraction ([8]; 50 nM): 1.12 ± 0.068 | surviving fraction ([8]; 100 nM): 1.08 ± 0.081 | surviving fraction ([8]; 500 nM): 0.958 ± 0.12 | surviving fraction ([8]; 1000 nM): 0.969 ± 0.18 | surviving fraction ([9]; 0.5 nM): 1.1 ± 0.12 | surviving fraction ([9]; 1 nM): 1.15 ± 0.066 | surviving fraction ([9]; 5 nM): 1.11 ± 0.042 | surviving fraction ([9]; 10 nM): 1.14 ± 0.029 | surviving fraction ([9]; 50 nM): 0.907 ± 0.036 | surviving fraction ([9]; 100 nM): 1.13 ± 0.068 | surviving fraction ([9]; 500 nM): 0.969 ± 0.1 | surviving fraction ([9]; 1000 nM): 1.02 ± 0.03 | surviving fraction ([10]; 0.5 nM): 0.691 ± 0.0098 | surviving fraction ([10]; 1 nM): 0.712 ± 0.017 | surviving fraction ([10]; 5 nM): 0.654 ± 0.075 | surviving fraction ([10]; 10 nM): 0.609 ± 0.058 | surviving fraction ([10]; 50 nM): 0.908 ± 0.035 | surviving fraction ([10]; 100 nM): 0.899 ± 0.084 | surviving fraction ([10]; 500 nM): 0.82 ± 0.057 | surviving fraction ([10]; 1000 nM): 0.824 ± 0.069 | surviving fraction ([11]; 0.5 nM): 1.01 ± 0.19 | surviving fraction ([11]; 1 nM): 0.758 ± 0.17 | surviving fraction ([11]; 5 nM): 0.0813 ± 0.018 | surviving fraction ([11]; 10 nM): 0.0613 ± 0.031 | surviving fraction ([11]; 50 nM): 0.0983 ± 0.025 | surviving fraction ([11]; 100 nM): 0.109 ± 0.031 | surviving fraction ([11]; 500 nM): 0.135 ± 0.056 | surviving fraction ([11]; 1000 nM): 0.154 ± 0.052 | surviving fraction ([12]; 0.5 nM): 1.14 ± 0.047 | surviving fraction ([12]; 1 nM): 1.1 ± 0.088 | surviving fraction ([12]; 5 nM): 1.14 ± 0.05 | surviving fraction ([12]; 10 nM): 1.094 ± 0.0083 | surviving fraction ([12]; 50 nM): 0.738 ± 0.039 | surviving fraction ([12]; 100 nM): 0.411 ± 0.063 | surviving fraction ([12]; 500 nM): 0.329 ± 0.046 | surviving fraction ([12]; 1000 nM): 0.298 ± 0.052 | surviving fraction ([13]; 0.5 nM): 1.1 ± 0.05 | surviving fraction ([13]; 1 nM): 1.08 ± 0.047 | surviving fraction ([13]; 5 nM): 1.09 ± 0.092 | surviving fraction ([13]; 10 nM): 1.05 ± 0.074 | surviving fraction ([13]; 50 nM): 0.943 ± 0.08 | surviving fraction ([13]; 100 nM): 0.847 ± 0.054 | surviving fraction ([13]; 500 nM): 0.976 ± 0.1 | surviving fraction ([13]; 1000 nM): 0.874 ± 0.065 | surviving fraction ([14]; 0.5 nM): 1.1 ± 0.22 | surviving fraction ([14]; 1 nM): 1.03 ± 0.2 | surviving fraction ([14]; 5 nM): 0.943 ± 0.24 | surviving fraction ([14]; 10 nM): 0.922 ± 0.15 | surviving fraction ([14]; 50 nM): 0.909 ± 0.17 | surviving fraction ([14]; 100 nM): 0.857 ± 0.3 | surviving fraction ([14]; 500 nM): 1.18 ± 0.3 | surviving fraction ([14]; 1000 nM): 1.28 ± 0.15 | surviving fraction ([15]; 0.5 nM): 0.764 ± 0.042 | surviving fraction ([15]; 1 nM): 0.743 ± 0.021 | surviving fraction ([15]; 5 nM): 0.679 ± 0.051 | surviving fraction ([15]; 10 nM): 0.633 ± 0.11 | surviving fraction ([15]; 50 nM): 0.515 ± 0.028 | surviving fraction ([15]; 100 nM): 0.396 ± 0.025 | surviving fraction ([15]; 500 nM): 0.211 ± 0.023 | surviving fraction ([15]; 1000 nM): 0.281 ± 0.051
